Measurements reported in patent US9206164B2, “Pyrazole compounds as CRTH2 antagonists” (Boehringer Ingelheim International GmbH, priority 2011, dated 2015).

These compounds were tested against human CRTH2 receptor (Homo sapiens (Human), UniProt Q9Y5Y4) (assay: CRTH2 receptor radioligand binding assay (SPA, [3H]-PGD2 displacement)). Details: antagonistic activities of selected compounds.
Protocol: The binding of CRTH2 antagonists is determined using membranes prepared from Chinese hamster ovary cells (CHO-K1 cells) transfected with the human CRTH2 receptor (CHO-K1-hCRTH2 cells, Perkin Elmer, Cat No ES-561-C). To produce cell membranes the CHO-K1-hCRTH2 cells are cultured in suspension in CHO SFMII medium supplemented with 400 μg/ml G418. The cells are harvested by centrifugation at 300 g for 10 min at room temperature. The cell pellet is resuspended in Phosphate Buffer Saline (PBS) including a protease inhibitor mix (Complete, Roche) and adjusted to a concentration of 10E7 cells/ml. The CHO-K1-hCRTH2 cells are disrupted by nitrogen […] to obtain the membrane preparation. Cell debris is removed by centrifugation (500 g at 4° C., 30 min) and the supernatant is transferred into fresh tubes followed by a second centrifugation at 40000 g for 1 h at 4° C. to sediment the membranes. The membranes are suspended in SPA incubation buffer (50 mM Tris HCl, 10 mM MgCl2, 150 mM NaCl, 1 mM EDTA, pH 7.4) without bovine serum albumin, homogenized by passing through a single use needle (Terumo, 23G×1″), and stored in aliquots at −80° C.
The CRTH2 receptor binding assay is performed in a scintillation proximity assay (SPA) format with the radioligand [^3H]-PGD2 (Perkin Elmer, NET616000MC). CHO-K1-hCRTH2 cell membranes are again homogenized by passing through a single use needle (Terumo, 23G×1″) and diluted in SPA incubation buffer in suitable concentrations (0.5-10 μg protein/well). The SPA assay is set up in 96 well microtiter plates (Perkin Elmer, CatNo. 6005040) in SPA incubation buffer with a final volume of 200 μl per well and final concentration of 50 mM Tris-HCl, 10 mM MgCl2, 150 mM NaCl, 1 mM EDTA pH 7.4, 0.1% bovine serum albumin). The SPA assay mixture contains 60 μl of the membrane suspension, 80 μl of Wheat Germ Agglutinin coated PVT beads (GE Healthcare, RPNQ-0001, 0.3 mg/well), 40 μl of [^3H]-PGD2 diluted in SPA buffer to a final concentration of 1 nM (50 000 dpm) and 20 μl of the test compound (dissolved in dimethylsulfoxid). The SPA assay mixture is incubated for 3 h at room temperature. Bound radioactivity is determined with a scintillation counter (Micro Beta Trilux, Wallac).
The binding of [^3H]-PGD2 to CHO-K1-hCRTH2 cell membranes is determined in the absence (total binding, Bo) and presence (non-specific binding, NSB) of unlabelled PGD2 (1 μM, Cayman Chemical, Cat No 12010) or a reference CRTH2 antagonist (10 μM CAY10471, Cayman Chemical, Cat No 10006735).
Determination of the affinity of a test compound is calculated by subtraction of the non-specific binding (NSB) from the total binding (Bo) or the binding in the presence of the test compound (B) at a given compound concentration. The NSB value is set to 100% inhibition. The Bo−NSB value is set to 0% inhibition.
% inhibition values were obtained at a defined compound concentration, e.g. at 1 μM, % inhibition of the test compound was calculated by the formula 100−((B−NSB)*100/(Bo−NSB)). % inhibition values above 100% are founded by assay variance.

Sequence of human CRTH2 receptor (Q9Y5Y4 whole entry): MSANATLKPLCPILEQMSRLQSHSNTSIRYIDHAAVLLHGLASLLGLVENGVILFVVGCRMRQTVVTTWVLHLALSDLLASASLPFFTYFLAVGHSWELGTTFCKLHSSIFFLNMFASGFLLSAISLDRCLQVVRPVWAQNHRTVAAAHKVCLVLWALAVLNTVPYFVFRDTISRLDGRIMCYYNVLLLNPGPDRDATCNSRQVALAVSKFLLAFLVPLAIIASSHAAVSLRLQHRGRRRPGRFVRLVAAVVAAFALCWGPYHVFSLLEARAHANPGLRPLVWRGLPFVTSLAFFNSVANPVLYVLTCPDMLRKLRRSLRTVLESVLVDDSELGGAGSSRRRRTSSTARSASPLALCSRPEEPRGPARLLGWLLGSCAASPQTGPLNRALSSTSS

Going from `Cc1nn(Cc2ccc(-c3cc4ccc(Cl)cc4[nH]3)cc2)c(C)c1CC(=O)O` [Compound 1, (1-[4-(6-Chloro-1H-indol-2-yl)-benzyl]-3,5-dimethyl-1H-pyrazol-4-yl)-acetic Acid] to `Cc1nn(Cc2ccc(-c3cc4cc(Cl)ccc4[nH]3)cc2)c(C)c1CC(=O)O` [Compound 3], the Ki rises from 0.8 nM to 4.2 nM (5.2-fold).

Compared with `Cc1nn(Cc2ccc(-c3cc4cc(C(F)(F)F)ccc4[nH]3)cc2)c(C)c1CC(=O)O` [Compound 2], `Cc1nn(Cc2ccc(-c3cc4ccc(C(F)(F)F)cc4[nH]3)cc2)c(C)c1CC(=O)O` [Compound 4] is 38-fold lower in Ki: 11.3 nM for the first, 0.3 nM for the second. The second binds more tightly here.

`Cc1nn(Cc2ccc(-c3cc4ccc(C(F)(F)F)cc4[nH]3)cc2F)c(C)c1CC(=O)O` [Compound 5] and `Cc1nn(Cc2ccc(-c3cc4ccc(C(F)(F)F)cc4[nH]3)cc2C(F)(F)F)c(C)c1CC(=O)O` [Compound 11] are within 1.5-fold of each other in Ki: 0.5 nM for the first, 0.7 nM for the second.

Going from `Cc1nn(Cc2ccc(-c3cc4ccc(Cl)cc4[nH]3)cc2F)c(C)c1CC(=O)O` [Compound 6] to `Cc1nn(Cc2cccc(-c3cc4ccc(Cl)cc4[nH]3)c2)c(C)c1CC(=O)O` [Compound 7], the Ki rises from 0.8 nM to 397 nM (500-fold). The first binds more tightly here.

Going from `Cc1nn(Cc2ccccc2-c2cc3ccc(Cl)cc3[nH]2)c(C)c1CC(=O)O` [Compound 8] to `Cc1nn(Cc2cccc(-c3cc4ccc(C(F)(F)F)cc4[nH]3)c2)c(C)c1CC(=O)O` [Compound 9], the Ki falls from 394 nM to 97.8 nM (4-fold). The second binds more tightly here.

Compared with `Cc1nn(Cc2ccc(-c3cc4ncccc4[nH]3)cc2)c(C)c1CC(=O)O` [Compound 10], `Cc1nn(Cc2ccc(-c3nc4ccccc4[nH]3)cc2)c(C)c1CC(=O)O` [Compound 14] is 23-fold lower in Ki: 308 nM for the first, 13.4 nM for the second. The second binds more tightly here.

`Cc1nn(Cc2ccc(-c3cc4cccnc4[nH]3)cc2F)c(C)c1CC(=O)O` [Compound 12] and `Cc1nn(Cc2ccc(-c3nc4cccnc4[nH]3)cc2)c(C)c1CC(=O)O` [Compound 31] are within 1.5-fold of each other in Ki: 155 nM for the first, 118 nM for the second.

Going from `CCc1nn(Cc2ccc(-c3nc4ccccc4[nH]3)cc2)c(CC)c1CC(=O)O` [Compound 15] to `CCc1nn(Cc2ccc(-c3nc4cc(Cl)ccc4[nH]3)cc2)c(CC)c1CC(=O)O` [Compound 45], the Ki falls from 2.3 nM to 0.3 nM (7.7-fold).

Compared with `CCc1nn(Cc2ccc(-c3nc4cc(Cl)c(Cl)cc4[nH]3)cc2)c(CC)c1CC(=O)O` [Compound 16], `CCc1nn(Cc2ccc(-c3nc4cc(F)c(Cl)cc4[nH]3)cc2)c(CC)c1CC(=O)O` [Compound 27] is 2-fold higher in Ki: 0.2 nM for the first, 0.4 nM for the second. The first binds more tightly here.

First: Cc1nn(Cc2ccc(-c3nc4cc(Cl)c(Cl)cc4[nH]3)cc2)c(C)c1CC(=O)O [Compound 17]
Second: Cc1nn(Cc2ccc(-c3nc4cc(F)c(Cl)cc4[nH]3)cc2)c(C)c1CC(=O)O [Compound 53]
The Ki of the first is 1.9-fold lower: 1.2 nM for the first, 2.3 nM for the second. The first binds more tightly here.

Compared with `Cc1nn(Cc2ccc(-c3nc4cc5ccccc5cc4[nH]3)cc2)c(C)c1CC(=O)O` [Compound 18], `CCc1nn(Cc2ccc(-c3nc4cc5ccccc5cc4[nH]3)cc2)c(CC)c1CC(=O)O` [Compound 19] is 8-fold lower in Ki: 0.8 nM for the first, 0.1 nM for the second.

Compared with `CCc1nn(Cc2ccc(-c3nc4ccc(C(F)(F)F)cc4[nH]3)cc2)c(CC)c1CC(=O)O` [Compound 20], `CCc1nn(Cc2ccc(-c3nc4cc(F)ccc4[nH]3)cc2)c(CC)c1CC(=O)O` [Compound 56] is 6.5-fold higher in Ki: 0.2 nM for the first, 1.3 nM for the second.

Compared with `Cc1nn(Cc2ccc(-c3nc4ccc(C(F)(F)F)cc4[nH]3)cc2)c(C)c1CC(=O)O` [Compound 21], `Cc1nn(Cc2ccc(-c3nc4cc(C(C)(C)C)ccc4[nH]3)cc2)c(C)c1CC(=O)O` [Compound 33] is 2.8-fold lower in Ki: 1.4 nM for the first, 0.5 nM for the second.

Going from `Cc1cc(Cn2nc(C)c(CC(=O)O)c2C)ccc1-c1nc2ccccc2[nH]1` [Compound 22] to `Cc1ccc2[nH]c(-c3ccc(Cn4nc(C)c(CC(=O)O)c4C)cc3)nc2c1` [Compound 41], the Ki falls from 21.9 nM to 4.8 nM (4.6-fold).

First: Cc1nn(Cc2ccc(-c3nc4cc(Cl)ccc4[nH]3)cc2)c(C)c1CC(=O)O [Compound 24]
Second: Cc1nn(Cc2ccc(-c3nc4cc(Br)ccc4[nH]3)cc2)c(C)c1CC(=O)O [Compound 32]
The Ki of the first is 1.6-fold higher: 1.9 nM for the first, 1.2 nM for the second. The second binds more tightly here.

Going from `Cc1nn(Cc2ccc(-c3nc4cc(Cl)ccc4n3C)cc2)c(C)c1CC(=O)O` [Compound 25] to `Cc1nn(Cc2ccc(-c3nc4ccccc4n3C)cc2)c(C)c1CC(=O)O` [Compound 30], the Ki rises from 176 nM to 753 nM (4.3-fold).

First: CCc1nn(Cc2ccc(-c3nc4cncc(C)c4[nH]3)cc2)c(CC)c1CC(=O)O [Compound 26]
Second: CCc1nn(Cc2ccc(-c3nc4cncnc4[nH]3)cc2)c(CC)c1CC(=O)O [Compound 37]
The Ki of the first is 3.8-fold lower: 22.6 nM for the first, 85.4 nM for the second.

First: Cc1nn(Cc2ccc(-c3nc4c(C)cncc4[nH]3)cc2)c(C)c1CC(=O)O [Compound 29]
Second: Cc1nn(Cc2ccc(-c3nc4ccncc4[nH]3)cc2)c(C)c1CC(=O)O [Compound 60]
The Ki of the first is 2.2-fold higher: 646 nM for the first, 299 nM for the second. The second binds more tightly here.

Going from `CCc1nn(Cc2ccc(-c3nc4cc(C#N)ccc4[nH]3)cc2)c(CC)c1CC(=O)O` [Compound 34] to `CCc1nn(Cc2ccc(-c3nc4cc(C)ccc4[nH]3)cc2)c(CC)c1CC(=O)O` [Compound 58], the Ki falls from 3.7 nM to 1.3 nM (2.8-fold). The second binds more tightly here.

First: CCc1nn(Cc2ccc(-c3nc4cc(Cl)c(Cl)cc4n3C)cc2)c(CC)c1CC(=O)O [Compound 35]
Second: CCc1nn(Cc2ccc(-c3nc4ccccc4n3C)cc2)c(CC)c1CC(=O)O [Compound 46]
The Ki of the first is 5.1-fold lower: 66.7 nM for the first, 340 nM for the second.

`Cc1nn(Cc2ccc(-c3nc4c(F)cc(F)cc4[nH]3)cc2)c(C)c1CC(=O)O` [Compound 36] and `Cc1nn(Cc2ccc(-c3nc4c(F)c(F)ccc4[nH]3)cc2)c(C)c1CC(=O)O` [Compound 47] are within 1.5-fold of each other in Ki: 5.6 nM for the first, 4.9 nM for the second.

Going from `Cc1nn(Cc2ccc(-c3nc4cc(Br)cnc4[nH]3)cc2)c(C)c1CC(=O)O` [Compound 38] to `Cc1nn(Cc2ccc(-c3nc4cc(Cl)cnc4[nH]3)cc2)c(C)c1CC(=O)O` [Compound 40], the Ki rises from 7.4 nM to 12.4 nM (1.7-fold). The first binds more tightly here.

Going from `CCc1nn(Cc2ccc(-c3nc4cc(OC)ccc4[nH]3)cc2)c(CC)c1CC(=O)O` [Compound 39] to `COc1ccc2[nH]c(-c3ccc(Cn4nc(C)c(CC(=O)O)c4C)cc3)nc2c1` [Compound 59], the Ki rises from 1.3 nM to 7.6 nM (5.8-fold).

`CCc1nn(Cc2ccc(-c3nc4cc(Cl)cnc4[nH]3)cc2)c(CC)c1CC(=O)O` [Compound 42] and `CCc1nn(Cc2ccc(-c3nc4cc(Br)cnc4[nH]3)cc2)c(CC)c1CC(=O)O` [Compound 57] are within 1.5-fold of each other in Ki: 1.7 nM for the first, 1.5 nM for the second.

`CCc1nn(Cc2ccc(-c3nc4c(F)c(F)ccc4[nH]3)cc2)c(CC)c1CC(=O)O` [Compound 43] and `CCc1nn(Cc2ccc(-c3nc4c(F)cc(F)cc4[nH]3)cc2)c(CC)c1CC(=O)O` [Compound 50] are the same in Ki: 1.1 nM for the first, 1.1 nM for the second.

`COc1ccc2[nH]c(-c3ccc(Cn4nc(C)c(CC(=O)O)c4C)cc3)nc2n1` [Compound 44] and `Cc1nn(Cc2ccc(-c3nc4c(F)cccc4[nH]3)cc2)c(C)c1CC(=O)O` [Compound 52] are within 1.5-fold of each other in Ki: 9.6 nM for the first, 8.7 nM for the second.

Compared with `CCc1nn(Cc2ccc(-c3nc4cccnc4[nH]3)cc2)c(CC)c1CC(=O)O` [Compound 48], `CCc1nn(Cc2ccc(-c3nc4ccncc4[nH]3)cc2)c(CC)c1CC(=O)O` [Compound 61] is 4.4-fold higher in Ki: 12.9 nM for the first, 56.4 nM for the second.

Compared with `CCc1nn(Cc2ccc(-c3nc4c(C)cccc4[nH]3)cc2)c(CC)c1CC(=O)O` [Compound 51], `CCc1nn(Cc2ccc(-c3nc4cc(C)c(Cl)cc4[nH]3)cc2)c(CC)c1CC(=O)O` [Compound 55] is 4.4-fold lower in Ki: 2.2 nM for the first, 0.5 nM for the second.

Going from `Cc1cc2nc(-c3ccc(Cn4nc(C)c(CC(=O)O)c4C)cc3)[nH]c2cc1Cl` [Compound 54] to `Cc1nn(Cc2ccc(-c3nc4cc(C#N)ccc4[nH]3)cc2)c(C)c1CC(=O)O` [Compound 62], the Ki rises from 1.1 nM to 18.4 nM (17-fold). The first binds more tightly here.
